Data: US8597660B2, “Therapeutic approach to neurodegenerative disorders using a TFP5-peptide” (The United States of America, as represented by the …, priority 2010, dated 2013)
“Also recorded” adds a separate entry of the source. Peptide text beside a SMILES is read from it. * marks the point of attachment. FITC = O=C1OC2(c3ccc(O)cc3Oc3cc(O)ccc32)c2ccc(NC(=S)*)cc21

Legend:
[1] = Toxicity of ip TFP5 in mice; type: in vivo, mouse; details: ip TFP5 (0.2 mM; or 10 weeks in three AD mice)
cleaved caspase-3 = assay: Cleaved caspase-3 Western blot in Aβ-treated cortical neurons; type: cell-based, rat; details: Aβ 6 h; P5 infection or roscovitine
Protocol: (§1) Western blot analysis was performed as previously described (Zheng et al., Eur J Biochem 269(18), 4427-4434, 2002). In brief, an equal amount of total protein (20 μg/lane) was resolved on a 4-20% SDS polyacrylamide gel and blotted onto a polyvinylidene difluoride membrane. This membrane was incubated in blocking buffer containing 20 mM Tris-HCl (pH 7.4), 150 mM NaCl, and 0.1% (vol/vol) Tween 20 (TTBS) plus 5% dry milk (w/v) for 1 hour at room temperature followed by incubation overnight at 4° C. in primary antibodies (see antibodies). The membranes were then washed four times in TTBS (5 minutes/each) followed by incubation in secondary antibody (goat-antimouse or goat anti-rabbit IgG (H+L)-horseradish peroxidase (HRP) conjugate at a dilution of 1:3000) for 1 hour at room temperature. Western blots were analyzed using the Amersham Enhanced Chemiluminescence (ECL) kit following the manufacturer's instructions (GE Healthcare, Piscataway, N.J.).
To determine whether P5 inhibited neuronal apoptosis induced by Aβ, primary cortical neurons (5 days in culture (DIC)) were transfected with P5-GFP using Lipofectamine 2000. After 24 hours, cells were exposed to Aβ for 6 hours. The neurons were fixed and subjected to TUNEL staining, while P5 was visualized by (green fluorescent protein) GFP. […] The data are quantified in FIG. 5B. […] The data are quantified in FIG. 5D.

tau phosphorylation = assay: Aβ-induced tau phosphorylation in cortical neurons, Western blot; type: cell-based, rat; details: Aβ 6 h; P5 infection or roscovitine
Protocol: Primary cultures of rat cortical neurons were prepared from E-18 rat fetuses as described previously (Zheng et al., J Biol Chem 278(26), 24026-24032, 2003). After 7 days, cells were infected independently or co-infected with empty vector (EV), the constructs of P5, P25, P35, wild-type Cdk5 and dominant negative Cdk5 (changing Lys33 to Thr33) using the Adenoviral vector (pAdTrack-CMV) packaging system as described above. […] The cells were fixed for immunocytochemistry analyses (ICC) or lysed with lysis buffer for immunoprecipitation and Western blot analyses. Cortical neuron cultures were prepared and plated on the cover slips as described. Human embryo kidney cells (HEK293) were grown as described previously (Zheng et al., Eur J Biochem 269(18), 4427-4434, 2002). In these studies HEK293 cells on day 1, or neurons on day 5, were transfected with or without Myc-P5-GFP using Lipofectamine 2000 following the manufacturer's instructions.
as §1
Amyloid plaques and neurofibrillary tangles, pathological hallmarks of several neurodegenerative disorders, are linked to deregulated Cdk5 and neuronal death. According to one model, β amyloid, being toxic, may evoke abnormal calcium influx into neurons which activates calpains. […] Hyperactivation of Cdk5, leads to the aberrant phosphorylation of tau and neurofilaments in a number of neurodegenerative diseases including AD and ALS. For example, primary cortical neurons, when treated with Aβ1-42 are induced to form Cdk5/P25 complexes, hyperactive Cdk5 activity, hyperphosphorylation of tau, and neuronal apoptosis. To determine whether P5 will inhibit endogenous tau phosphorylation induced by Aβ treatment in cortical neurons, 7 day old cortical neurons, infected with empty vector (EV) or with P5 were treated with Aβ for 6 hours, lysed and prepared for Cdk5 immunoprecipitation and kinase assay. Aβ treatment causes an approximate 3-fold increase in endogenous Cdk5 activity as visualized by histone H1 phosphorylation (FIG. 4A, panel 5, lane 2; FIG. 4B).
; FIG. 4D). […] Tau antibodies p-Ser404, PHF antibody AT180 (recognizes p-Thr231) and p-Ser422 antibodies were used to observe whether P5 affects other tau phosphorylation residues (FIGS. 4E, 4F). […]. Tau 5 recognizes total tau, nonphosphorylated as well as phosphorylated.

Cdk5/P25 [2] = target: T1, Cdk5/P25 (Homo sapiens, UniProt Q00535); details: earlier studies; cited from earlier work
T1 sequence (Q00535 whole entry, species assumed): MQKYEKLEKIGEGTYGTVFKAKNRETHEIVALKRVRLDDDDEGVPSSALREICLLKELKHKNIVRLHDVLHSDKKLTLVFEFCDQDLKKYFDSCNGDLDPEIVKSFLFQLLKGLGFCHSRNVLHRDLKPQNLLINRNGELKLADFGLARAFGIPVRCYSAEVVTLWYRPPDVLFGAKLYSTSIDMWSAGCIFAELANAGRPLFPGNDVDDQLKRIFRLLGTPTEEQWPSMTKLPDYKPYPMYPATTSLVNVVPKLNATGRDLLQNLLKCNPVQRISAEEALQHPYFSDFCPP

Cdk5/P25 [3] = target: T1, Cdk5/P25; details: earlier studies, cited from earlier work
Cdk5/P25 [4] = target: T1, Cdk5/P25; assay: In vitro kinase (pad) assay of active Cdk5/P25 with histone H1 as substrate; type: biochemical; details: in vitro kinase assay, histone H1, FIG. 1
Protocol: Kinase assays were performed as previously described (Veeranna, et al., J Neurosci 18(11), 4008-4021, 1998). Briefly, 7 days in culture (7 DIC) primary rat cortical neurons were infected with P25, P35, Cdk5 wild-type, dominant negative-Cdk5 and P5 using the lentiviral gene delivery as described earlier. Cdk5 was immunoprecipitated using the polyclonal C8 antibody overnight at 4° C. and immunoglobulin isolated using Protein A sepharose beads for 2 hours at 4° C. Immunoprecipitates were washed three times with lysis buffer and then once with 1× kinase buffer containing 20 mM Tris-Cl pH 7.4, 1 mM EDTA, 1 mM EGTA, 10 mM MgCl2, 10 mM sodium fluoride and 1 mM sodium orthovanadate. Endogenous Cdks were immunoprecipitated from HEK 293 cells using their respective antibodies and treated as above. Kinase assays were performed in the same buffer containing 1 mM DTT, 0.1 mM ATP and 0.185 MBq [γ-32P] ATP with 20 μg of histone H1 as the substrate. Phosphorylation was performed in a final volume of […] incubated at 30° C. for 60 minutes, stopped by the addition of 10% SDS sample buffer and heating at 95° C. for 5 minutes. Samples were separated by SDS-PAGE, gels were stained with Coomassie, destained, dried and exposed to autoradiography. In pad assays, 25 μl aliquots of the incubation mixture were placed on a Whatman p80 paper square, washed and dried and placed in a scintillation vial for counting.
These are GST-P1 (E211-A277 of SEQ ID NO: 16), 67 amino acid residues; GST-P2 (M237-A277), 41 residues; GST-P3 (E221-L267 of SEQ ID NO: 16), 47 residues; GST-P4 (E221-L249 of SEQ ID NO: 16), 29 residues and GST-P5 (K254-A277 of SEQ ID NO: 16) 24 residues. Each was incubated with active Cdk5/P25 in a kinase assay in vitro. […] FIG. 10 provides a comparison of P5 and CIP, relative to P35.
In a dose-dependent kinase assay the effective inhibitory concentration of P5 for both the Cdk5/P25 and Cdk5/P35 complexes was evaluated. His-P5 peptide was added at different concentrations to the in vitro assay containing 100 μM [γ32-P] ATP and histone H1. Inhibition increased progressively with increasing P5 concentration in both complexes (Compare FIGS. 2A, 2B with 2C, 2D).
P5, a 24 amino acid peptide derived from Cdk5 regulator p35, was modified by conjugating it with TAT PTD at the C-terminal end and with FITC (using a GGG linker) at the N-terminus to produce a fluorescent (FITC-labeled) TFP5 (SEQ ID NO: 2) peptide. In a dose-dependent kinase assay the effective inhibitory concentration of TFP5 for both the Cdk5/P25 and Cdk5/P35 complexes was evaluated. His-P5 peptide was added at different concentrations to the in vitro assay containing 100 μM [γ32-P] ATP and histone H1. […] Data represent means of four independent experiments with error bars representing SEM (*p≦0.05, **p≦0.001).

## CC[C@H](C)[C@H](NC(=O)[C@H](CCC(N)=O)NC(=O)[C@H](CC(C)C)NC(=O)[C@H](CCSC)NC(=O)[C@H](CCCCN)NC(=O)[C@H](CO)NC(=O)[C@H](CO)NC(=O)[C@H](CCSC)NC(=O)[C@H](CC(C)C)NC(=O)[C@H](CC(N)=O)NC(=O)[C@@H](NC(=O)[C@@H](NC(=O)[C@H](CO)NC(=O)[C@H](CC(C)C)NC(=O)[C@H](CS)NC(=O)[C@H](CCCNC(=N)N)NC(=O)[C@H](CC(=O)O)NC(=O)[C@H](Cc1c[nH]c2ccccc12)NC(=O)[C@H](Cc1ccccc1)NC(=O)[C@H](C)NC(=O)[C@H](CCC(=O)O)NC(=O)[C@H](CCCCN)NC(=O)CNC(=O)CNC(=O)CNC(=S)Nc1ccc2c(c1)C(=O)OC21c2ccc(O)cc2Oc2cc(O)ccc21)C(C)C)[C@@H](C)CC)C(=O)N[C@@H](CC(N)=O)C(=O)N[C@@H](C)C(=O)N[C@@H](Cc1ccc(O)cc1)C(=O)N[C@@H](C)C(=O)N[C@@H](CCCNC(=N)N)C(=O)N[C@@H](C)C(=O)N[C@@H](C)C(=O)N[C@@H](CCCNC(=N)N)C(=O)N[C@@H](CCCNC(=N)N)C(=O)N[C@@H](C)C(=O)N[C@@H](C)C(=O)N[C@@H](CCCNC(=N)N)C(=O)N[C@@H](CCCNC(=N)N)C(=O)O [TFP5] ({FITC}-GGGKEAFWDRCLSVINLMSSKMLQINAYARAARRAARR-OH)
[1]
  Toxicity in vivo: without any toxicity; also recorded: without resulting in cell death; also recorded: no toxic effects were observed

## CC[C@H](CO)Nc1nc(NCc2ccccc2)c2ncn(C(C)C)c2n1 [roscovitine, reference compound]
Cleaved caspase-3
  Cleaved caspase-3 expression: reduced levels of cleaved caspase-3 comparable to that seen with P5 infection
Tau phosphorylation
  Aβ-induced tau phosphorylation at Ser422: significantly inhibits tau phosphorylation at Ser422 site
  Aβ-induced tau phosphorylation detected by AT8 and p-Ser199/202 antibodies: baseline levels of tau phosphorylation; also recorded: significantly inhibited

## CIP: 125-amino acid truncated peptide from P35 (residues 154-279 of SEQ ID NO: 16), inhibitor of Cdk5/P25
Cdk5/P25 [2]
  Inhibition of Cdk5/P25 activity by CIP: highly effective and specific inhibitor of Cdk5/P25 activity
Cdk5/P25 [3]
  Tau hyperphosphorylation: reduces tau hyperphosphorylation
Cdk5/P25 [3]; transfected HEK cells and neurons
  Apoptosis induced by Cdk5/P25: protects transfected HEK cells and neurons from apoptosis

## P3: 47 residue peptide derived from CIP, E221-L267 of SEQ ID NO: 16 (P35)
Cdk5/P25 [4]
  Inhibition of Cdk5/P25 activity, comparison among peptides and CIP: more effective inhibitors of Cdk5/P25 activity than CIP
